Active and inactive are the calls of the source. How the calls were made is not given here.

This data set has as its system CCRIS mutagenicity, Ames/micronucleus/aberration tests. As to the kind of experiment: CCRIS mutagenicity studies.
Where [1] appears, read: Test System: AMES SALMONELLA TYPHIMURIUM, Strain/Indicator: TA98, Metabolic Activation: NONE, Method: STANDARD PLATE.
The mark [2] stands for this setting: Test System: AMES SALMONELLA TYPHIMURIUM, Strain/Indicator: TA100, Metabolic Activation: NONE, Method: STANDARD PLATE.

On to `O=C(O)[C@H](O)[C@@H](O)C(=O)O`, for which the mutagenic call is “inactive; negative; authors report chemical name as sodium d-tartrate with cas number of s” (End Point: IN VIVO MICRONUCLEUS, Test System: BONE MARROW POLYCHROMATIC ERYTHROCYTES, Species: MOUSE, Strain/Sex: DDY/MALE, Route: IP); “inactive; negative” (Test System: AMES SALMONELLA TYPHIMURIUM, Strain/Indicator: TA97, Metabolic Activation: NONE, Method: PREINCUBATION); “inactive; negative” (Test System: AMES SALMONELLA TYPHIMURIUM, Strain/Indicator: TA97, Metabolic Activation: RAT, LIVER, S-9, AROCLOR 1254, Method: PREINCUBATION); “inactive; negative” (Test System: AMES SALMONELLA TYPHIMURIUM, Strain/Indicator: TA98, Metabolic Activation: NONE, Method: PREINCUBATION); “inactive; negative” under setting [1]; “inactive; negative” (Test System: AMES SALMONELLA TYPHIMURIUM, Strain/Indicator: TA98, Metabolic Activation: RAT LIVER S-9, PHENOBARBITAL AND BETA-NAPHTHOFLAVONE, Method: PREINCUBATION). Moreover, the mutagenic call (Test System: AMES SALMONELLA TYPHIMURIUM, Strain/Indicator: TA98, Metabolic Activation: RAT, LIVER, S-9, AROCLOR 1254, Method: STANDARD PLATE) is “inactive; negative”; the mutagenic call (Test System: AMES SALMONELLA TYPHIMURIUM, Strain/Indicator: TA100, Metabolic Activation: NONE, Method: PREINCUBATION) was “inactive; negative”; the mutagenic call under setting [2] is “inactive; negative”; the mutagenic call (Test System: AMES SALMONELLA TYPHIMURIUM, Strain/Indicator: TA100, Metabolic Activation: RAT LIVER S-9, PHENOBARBITAL AND BETA-NAPHTHOFLAVONE, Method: PREINCUBATION) is “inactive; negative”; the mutagenic call (Test System: AMES SALMONELLA TYPHIMURIUM, Strain/Indicator: TA100, Metabolic Activation: RAT, LIVER, S-9, AROCLOR 1254, Method: STANDARD PLATE) is “inactive; negative”; the mutagenic call (Test System: AMES SALMONELLA TYPHIMURIUM, Strain/Indicator: TA102, Metabolic Activation: NONE, Method: PREINCUBATION) was “inactive; negative”. The mutagenic call runs as follows: (Test System: AMES SALMONELLA TYPHIMURIUM, Strain/Indicator: TA102, Metabolic Activation: RAT, LIVER, S-9, AROCLOR 1254, Method: PREINCUBATION) “inactive; negative”; (Test System: AMES SALMONELLA TYPHIMURIUM, Strain/Indicator: TA1535, Metabolic Activation: NONE, Method: PREINCUBATION) “inactive; negative”; (Test System: AMES SALMONELLA TYPHIMURIUM, Strain/Indicator: TA1535, Metabolic Activation: NONE, Method: STANDARD PLATE) “inactive; negative”; (Test System: AMES SALMONELLA TYPHIMURIUM, Strain/Indicator: TA1535, Metabolic Activation: RAT LIVER S-9, PHENOBARBITAL AND BETA-NAPHTHOFLAVONE, Method: PREINCUBATION) “inactive; negative”; (Test System: AMES SALMONELLA TYPHIMURIUM, Strain/Indicator: TA1535, Metabolic Activation: RAT, LIVER, S-9, AROCLOR 1254, Method: STANDARD PLATE) “inactive; negative”; (Test System: AMES SALMONELLA TYPHIMURIUM, Strain/Indicator: TA1537, Metabolic Activation: NONE, Method: PREINCUBATION) “inactive; negative”. In addition, the mutagenic call was “inactive; negative” (Test System: AMES SALMONELLA TYPHIMURIUM, Strain/Indicator: TA1537, Metabolic Activation: NONE, Method: STANDARD PLATE); “inactive; negative” (Test System: AMES SALMONELLA TYPHIMURIUM, Strain/Indicator: TA1537, Metabolic Activation: RAT LIVER S-9, PHENOBARBITAL AND BETA-NAPHTHOFLAVONE, Method: PREINCUBATION); “inactive; negative” (Test System: AMES SALMONELLA TYPHIMURIUM, Strain/Indicator: TA1537, Metabolic Activation: RAT, LIVER, S-9, AROCLOR 1254, Method: STANDARD PLATE); “inactive; negative” (Test System: AMES SALMONELLA TYPHIMURIUM, Strain/Indicator: TA1538, Metabolic Activation: NONE, Method: STANDARD PLATE); “inactive; negative” (Test System: AMES SALMONELLA TYPHIMURIUM, Strain/Indicator: TA1538, Metabolic Activation: RAT, LIVER, S-9, AROCLOR 1254, Method: STANDARD PLATE); “inactive; negative” (Test System: E. COLI, Strain/Indicator: WP2, Metabolic Activation: NONE, Method: STANDARD PLATE). The mutagenic call was “inactive; negative” (Test System: E. COLI, Strain/Indicator: WP2, Metabolic Activation: RAT, LIVER, S-9, AROCLOR 1254, Method: STANDARD PLATE); “inactive; negative” (Test System: E.COLI, Strain/Indicator: WP2UVRA/PKM101, Metabolic Activation: NONE, Method: PREINCUBATION); “inactive; negative” (Test System: E.COLI, Strain/Indicator: WP2UVRA/PKM101, Metabolic Activation: RAT LIVER S-9, PHENOBARBITAL AND BETA-NAPHTHOFLAVONE, Method: PREINCUBATION).
With `Clc1cccc2c1oc1ccccc12`, the mutagenic call by setting is: under setting [1], “inactive; negative”; (Test System: AMES SALMONELLA TYPHIMURIUM, Strain/Indicator: TA98, Metabolic Activation: RAT, LIVER, S-9, PHENOBARBITAL AND NAPHTHOFLAVONE, Method: STANDARD PLATE) “inactive; negative”; under setting [2], “inactive; negative”; (Test System: AMES SALMONELLA TYPHIMURIUM, Strain/Indicator: TA100, Metabolic Activation: RAT, LIVER, S-9, PHENOBARBITAL AND NAPHTHOFLAVONE, Method: STANDARD PLATE) “inactive; negative”.
For `CCOP(=S)(OCC)SCCl`, the mutagenic call is “inactive; negative” (Test System: AMES SALMONELLA TYPHIMURIUM, Strain/Indicator: TA98, Metabolic Activation: NONE); “inactive; negative” under setting [1]; “inactive; negative” (Test System: AMES SALMONELLA TYPHIMURIUM, Strain/Indicator: TA98, Metabolic Activation: RAT, LIVER, S-9, SODIUM PHENOBARBITAL, Method: STANDARD PLATE); “inactive; negative” (Test System: AMES SALMONELLA TYPHIMURIUM, Strain/Indicator: TA98, Metabolic Activation: S-9); “inactive; negative” (Test System: AMES SALMONELLA TYPHIMURIUM, Strain/Indicator: TA100, Metabolic Activation: NONE); “inactive; negative” under setting [2]. In addition, the mutagenic call by setting is: (Test System: AMES SALMONELLA TYPHIMURIUM, Strain/Indicator: TA100, Metabolic Activation: RAT, LIVER, S-9, SODIUM PHENOBARBITAL, Method: STANDARD PLATE) “inactive; negative”; (Test System: AMES SALMONELLA TYPHIMURIUM, Strain/Indicator: TA100, Metabolic Activation: S-9) “inactive; negative”; (Test System: E. COLI, Strain/Indicator: WP2, Metabolic Activation: NONE) “inactive; negative”; (Test System: E. COLI, Strain/Indicator: WP2, Metabolic Activation: RAT, LIVER, S-9, SODIUM PHENOBARBITAL, Method: STANDARD PLATE) “inactive; negative”; (Test System: E. COLI, Strain/Indicator: WP2, Metabolic Activation: S-9) “inactive; negative”; (Test System: E. COLI, Strain/Indicator: WP2 UVRA, Metabolic Activation: NONE) “inactive; negative”. Besides, the mutagenic call reads like this: (Test System: E. COLI, Strain/Indicator: WP2 UVRA, Metabolic Activation: RAT, LIVER, S-9, SODIUM PHENOBARBITAL, Method: STANDARD PLATE) “inactive; negative”; (Test System: E. COLI, Strain/Indicator: WP2 UVRA, Metabolic Activation: S-9) “inactive; negative”.
For the molecule `COCC(O)Cn1cc([N+](=O)[O-])nc1C` (centres undefined), the mutagenic call was “active; positive” (Test System: E. COLI, Strain/Indicator: CM561 EXRA, Metabolic Activation: NONE, Method: SUSPENSION/PLATE); “inactive; negative” (Test System: E. COLI, Strain/Indicator: CM561 EXRA, Metabolic Activation: RAT, LIVER, S-9, AROCLOR 1254, Method: SUSPENSION/PLATE); “active; positive” (Test System: E. COLI, Strain/Indicator: CM611 UVRA EXRA, Metabolic Activation: NONE, Method: SUSPENSION/PLATE); “active; positive” (Test System: E. COLI, Strain/Indicator: CM611 UVRA EXRA, Metabolic Activation: RAT, LIVER, S-9, AROCLOR 1254, Method: SUSPENSION/PLATE).
